A word on the AUC(0-inf): it is total exposure, with the tail of the curve extrapolated. Higher therefore signals more exposure. What is called clearance is the rate of elimination divided by the concentration. A lower clearance goes with inefficient removal. The term bioavailability denotes dose-corrected exposure relative to a reference, in per cent. Low readings indicate little systemic uptake, high ones much systemic uptake. One may read the half-life as how long it takes for the measured level to halve. A high value points to slow loss.

Consider four compounds from patent US20240350434A1, “METHODS FOR TREATING MAJOR DEPRESSIVE DISORDER AND TREATMENT-RESISTANT DEPRESSION” (iX Biopharma Limited, priority 2020, published 2024).

In series [1] the test system is NMDA receptors. To be noted: cited from earlier work.
Series [2] concerns mouse tests of antidepressant efficacy. To be noted: up to a 30-fold range of doses, multiple mouse tests; cited from earlier work.
Series [3] is described as follows: Open label two way randomized crossover pharmacokinetic / absolute bioavailability study, SL ketamine wafer 25 mg vs 10 mg i.v. infusion. The settings on record: for clearance: CL, clearance following i.v. administration; for bioavailability: other: sublingual, F; for half-life: median (min-max in text) of eight healthy volunteers; for extrapolated portion of the AUC(0,∞): min-max. The procedure:
The study was of open label two way randomized, crossover design in eight healthy male volunteers who all gave written informed consent. Each participant received either a single 10 mg i.v. dose as a constant rate 30 min infusion or a 25 mg SL dose of ketamine in two treatment periods with a 7 day washout. Both the SL and i.v. doses, and the duration of the i.v. infusion were chosen to ensure adequate characterization of the plasma concentration-time profiles and good quality estimates of pharmacokinetic (PK) variables for both routes of administration. […] The sequence of the two formulations was according to a computer-generated randomization code.
The SL wafer formulation was a freeze dried solid dispersion of racemic ketamine hydrochloride in a porous matrix using lactose as a filling agent. Prior to administration of the wafer the sublingual space was rinsed with 3 ml of water after which the wafer was placed sublingually by a member of the study staff. The participants were instructed to avoid chewing or swallowing of the wafer within 5 min of its placement. For i.v. administration, commercially available ketamine (Ketalar®) was diluted to 30 ml in saline and administered over 30 min using a volumetrically controlled syringe driver. The infusion line was primed prior to start of the infusion.
Pharmacokinetic blood sampling and clinical assessment of local tolerability and safety were carried out for 24 h following both dosing occasions.
Key inclusion criteria were healthy adult males aged 18-65 years with a BMI 19-30 kg m^−2 in good general health including mental health as assessed by the Symptom Checklist-90-R (SCL-90-R®), a screening instrument which evaluates a broad range of psychological problems and symptoms of psychopathology. Pharmacokinetic blood samples (5 ml), were taken following both i.v. and SL administration at predose 5, 10, 15, 30, 35 and 45 min, and at 1.0, 1.5, 2.0, 2.5, 3.0, 4.0, 6.0, 8.0,12 and 24 h post-dose.
Whole blood was drawn into prechilled lithium heparin tubes and remained on ice post-sample collection until centrifugation. Samples were centrifuged at 1800 g for 10 min in a refrigerated centrifuge at 4° C. Plasma was decanted and frozen at-80° C.
Safety laboratory testing (biochemistry, haematology and urinalysis) was performed predose and at hour 24 post-dose administration in each period. Quantification of the plasma concentrations of racemic ketamine was performed using a validated HPLC method with u.v. detection, a lower limit of quantification (LLOQ) of 2 ng ml^−1 and <20% bias and imprecision.
Standard non-compartmental methods using the PK Solver plug-in for Microsoft
Excel were used to derive pharmacokinetic variables, except for Cmax, Tmax and Tlast, which were taken as observations from the plasma concentration-time profile of each participant. Actual times were used when reporting Tmax. The terminal rate constant (λz) was estimated by log-linear regression, of the slope of the natural log plasma concentration vs. time curve where λz=−1×slope. The linear regression in the terminal phase used the last three to six data points. The terminal t1/2 was calculated as t1/2=ln(2)/λz.
The area under the plasma concentration time curve from time zero to the last quantifiable concentration (AUC(0,tlast)) was obtained using the linear trapezoidal method and extrapolated to infinity to obtain the total area, AUC(0,∞), with Clast/λz, where Clast is the last quantifiable plasma concentration.

A short description of series [4]: Clinical assessment of local tolerability and safety in the crossover study. Type of series: in vivo, human. On the procedure: To assess the local tolerability profile of the SL formulation, modified Likert scales (0-10) were recorded at 5, 10, 15, 30 and 45 min and 1 h post-dose administration at various time points for both the SL and i.v. formulation: • Mucosal irritation • Burning sensation • Bitterness • Nausea • Residual grittiness in the mouth
Safety assessments included scheduled adverse event probes, spontaneous adverse event (AE) reporting, physical examination, routine laboratory investigations, ECGs and vital sign evaluation.
Vital signs (including systolic and diastolic blood pres-sure, pulse, respiratory rate and body temperature) were performed predose and at hours 0.5, 1, 2, 4, 6, 8, 12 and 24 h post-dose. Pulse oximetry was recorded predose and continuously for the first 3 h post-dose administration

Series [5] concerns treatment-resistant major depressed patients. The settings on record: cited from earlier work.
For series [6] the following is noted: cited from earlier work.
For series [7] the following is noted: sublingually administered ketamine; cited from earlier work.
[8] abbreviates: individual subjects, 10 mg as 30 min i.v. infusion.
Where [9] appears, read: individual subjects, 25 mg sublingually as a wafer.
Where [10] appears, read: both routes (10 mg i.v., 25 mg SL).
The mark [11] stands for this setting: i.v. infusion, treatment-resistant major depressed patients.

“And” between values parts separate entries of the source, which are not always exact repeats. Equal values may be shown once.

With `NC1(c2ccccc2Cl)CCCCC1=O` (centres unmarked) [norketamine], the “potency as NMDA antagonists relative to parent molecules (times less)” value in series [1] was 5-8 times.
With `CN[C@@]1(c2ccccc2Cl)CCCCC1=O` [(R)-ketamine], the “antidepressant efficacy compared with (S)-ketamine” value in series [2] is on record as “superior to (S)-ketamine”.
With `CNC1(c2ccccc2Cl)CCCCC1=O` (racemic) [RS ketamine, ketamine], the “Cmax, peak plasma concentration (i.v.)” value in series [3] (Gmean of eight healthy volunteers, 10 mg as 30 min i.v. infusion) was 128.1 ng/ml^−1; in series [3] (individual subjects, 10 mg as 30 min i.v. infusion, healthy volunteers), 124.2 ng/ml^−1 and 120.4 ng/ml^−1 and 101.9 ng/ml^−1 and 83.2 ng/ml^−1 and 81.1 ng/ml^−1 and 226.7 ng/ml^−1 and 166.3 ng/ml^−1 and 160.3 ng/ml^−1. Also, the “Cmax, peak plasma concentration (SL)” value in series [3] (Gmean of eight healthy volunteers, 25 mg sublingually as a wafer) is 71.1 ng/ml^−1; in series [3] (individual subjects, 25 mg sublingually as a wafer, healthy volunteers) it was 60.2 ng/ml^−1 and 50.0 ng/ml^−1 and 75.1 ng/ml^−1 and 51.8 ng/ml^−1 and 61.2 ng/ml^−1 and 88.8 ng/ml^−1 and 128.3 ng/ml^−1 and 76.7 ng/ml^−1. Moreover, the “first quantifiable ketamine plasma concentrations observed at” value in series [3] (all participants, both administration routes (i.v. and SL), first post-dose sample) came out at 5 min. For the same compound, the AUC(0-inf) in series [3] (human, plasma, 25 mg, AUC(0,∞) (SL), individual subjects, 25 mg sublingually as a wafer) was found to be 204 ng·h/mL; in series [3] (human, plasma, iv, 10 mg, AUC(0,∞) (i.v.), individual subjects, 10 mg as 30 min i.v. infusion), 270 ng·h/mL; in series [3] (male, human, plasma, 25 mg, AUC(0,∞) (SL), Gmean of eight healthy volunteers, 25 mg sublingually as a wafer) it was 185 ng·h/mL; in series [3] (male, human, plasma, iv, 10 mg, AUC(0,∞) (i.v.), Gmean of eight healthy volunteers, 10 mg as 30 min i.v. infusion), 255 ng·h/mL. Moreover, the clearance in series [3] (human, plasma, iv, 10 mg, individual subjects, 10 mg as 30 min i.v. infusion) was 997 mL/min; in series [3] (male, human, plasma, iv, 10 mg, Gmean of eight healthy volunteers, 10 mg as 30 min i.v. infusion), 653 mL/min. For the same compound, the bioavailability in series [3] (human, plasma, 25 mg, individual subjects, 25 mg SL wafer vs 10 mg i.v., dose adjusted AUC(0,∞)) is 30%; in series [3] (male, human, plasma, 25 mg, median (lower, upper 90% CI limit in text) of eight healthy volunteers, 25 mg SL wafer vs 10 mg i.v.), 29%. In series [3] (setting [8]), the “AUC(0,∞) (i.v.)” value is 289.2 ng·h/mL and 299.4 ng·h/mL and 261.0 ng·h/mL and 167.2 ng·h/mL and 282.7 ng·h/mL and 243.2 ng·h/mL and 254.8 ng·h/mL. Moreover, the “CL, clearance following i.v. administration” value in series [3] (setting [8]) was 37.0 L/h and 34.6 L/h and 33.4 L/h and 36.3 L/h and 35.4 L/h and 41.1 L/h and 39.3 L/h. Besides, the “Vz, apparent volume of distribution following i.v. administration” value in series [3] (setting [8]) was 253 L and 300 L and 164 L and 385 L and 375 L and 126 L and 158 L and 283 L. In addition, the “F, bioavailability” value in series [3] (individual subjects, 25 mg SL wafer vs 10 mg i.v., dose adjusted AUC(0,∞)) was 23% and 38% and 28% and 27%. In addition, the “AUC(0,∞) (SL)” value in series [3] (setting [9]) is 171.9 ng·h/mL and 211.3 ng·h/mL and 166.1 ng·h/mL and 151.6 ng·h/mL and 202.9 ng·h/mL and 162.5 ng·h/mL and 134.3 ng·h/mL. Besides, the “t1/2, terminal half-life (SL)” value in series [3] (setting [9]) is 5.5 h and 3.5 h and 2.3 h and 4.6 h and 5.1 h and 2.9 h and 1.8 h and 3.2 h. The half-life in series [3] (male, human, plasma, 25 mg, t1/2, terminal half-life (SL), 25 mg sublingually as a wafer) was 3.4 h; in series [3] (male, human, plasma, iv, 10 mg, t1/2, terminal half-life (i.v.), 10 mg as 30 min i.v. infusion), 4.5 h. In series [3] (male, human, plasma, iv, 10 mg, Vz, apparent volume of distribution following i.v. administration, Gmean of eight healthy volunteers, 10 mg as 30 min i.v. infusion), the Vd was 237 L. Further, the “extrapolated portion of the AUC(0,∞)” value in series [3] (SL dosing) is 2-9%; in series [3] (i.v. dosing), 3-7%. The “onset of adverse events” value in series [4] (10 mg i.v.) lay within 6 to 22 min; in series [4] (25 mg SL dosing) it was 5 to 18 min. Moreover, the “adverse events terrible taste in mouth, blurred vision, decreased sensation in arm and dizziness, number of each” value in series [4] (SL) is recorded as “one”. In series [4] (setting [10]), the “duration of adverse events” value is listed as “less than 1 h”. Moreover, the serious adverse events result in series [4] (setting [10]) was “no serious adverse events”. Also, in series [4] (setting [10]), the “severity of adverse events” value is reported as “mild”. Further, the “local and systemic tolerability” value in series [4] (both routes of administration) is listed as “very good”. The “adverse events thought to be related to treatment, number reported” value in series [4] (both routes, eight volunteers) is listed as “Nineteen”. Besides, the “adverse events body feels heavy, dry mouth and visual disturbance, number of each” value in series [4] (i.v.) is listed as “one”. In series [5] (6 repeated IV doses 0.5 mg/kg, Wang et al), the “treatment of non-melancholic or anxious depression patients as measured by MADRS” value is reported as “effectively treated”. Besides, in series [5] (setting [11]), the “patients who maintained response for at least 7 days” value is recorded as 35%. Besides, in series [5] (setting [11]), the “time to manifestation of antidepressant effects post-infusion” value was not above 2 h. Moreover, in series [5] (single IV dose 0.5 mg/kg, Zarate et al), the “anti-depressive effects as measured by MADRS” value was “caused anti-depressive effects”. The “efficacy for the treatment of depression, comparison with esketamine” value in series [5] (single dose IV 0.5 mg/kg, Bahji et al meta-analysis) is listed as “more efficacious than intransal esketamine”. In addition, the “duration of action as an anaesthetic” value in series [6] (depending on dose) is reported as “approximately 30 minutes”. For the same compound, the terminal half-life result in series [6] (racemic drug) was “approximately 3 hours”. Besides, the “bioavailability values reported in the literature” value in series [7] is reported as 24-32.2%.
With `CN[C@]1(c2ccccc2Cl)CCCCC1=O` [S enantiomer, (S)-ketamine], in series [1] (in humans in vivo), the “potency relative to R enantiomer (times more potent)” value was “approximately 3 times”.
